One assay relates to Rhipicephalus sanguineus. As to the kind of experiment: Rhipicephalus sanguineus in vitro contact test with adult brown dog ticks. The settings on record: application rate 5 μg/cm^2 (=500 g/ha); after 48 h; dead or moribund ticks. Type of assay: in vivo. An outline of the steps:
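Adult Rhipicephalus sanguineus (5-10 per tube) held in glass tubes coated with compound from acetone solution, 900 ppm giving 5 μg/cm^2, in the dark at room temperature. After 48 h ticks put on a 45-50° C hotplate up to 5 min; motionless or uncoordinated ticks scored dead/moribund as % efficacy.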

A further assay concerns Boophilus microplus. Put plainly: Boophilus microplus injection test. Type of assay: in vivo. As to conditions: 20 μg/animal; assessed after 7 days. Here is the method: (§1) • Solvent: dimethyl sulfoxide
1 μl of the active ingredient solution is injected into the abdomen of 5 engorged adult female cattle ticks (Boophilus microplus). The animals are transferred into dishes and kept in a climate-controlled room.

Assay [1] concerns Ctenocephalides felis. Put plainly: Ctenocephalides felis oral test. It is filed as in vivo. The settings on record: 100 ppm in citrated cattle blood; after 2 days.
Another assay deals with Musca domestica. As to the kind of experiment: Musca domestica test. It is filed as in vivo. As to conditions: 100 ppm; adult houseflies; after 2 days. The protocol:
as §1
To produce a suitable active ingredient formulation, 10 mg of active ingredient are mixed with 0.5 ml of dimethyl sulfoxide, and the concentrate is diluted with water to the desired concentration.
Vessels containing a sponge treated with sugar solution and the active ingredient formulation of the desired concentration are populated with 10 adult houseflies (Musca domestica).

The subject of the next assay is Myzus persicae. Put plainly: Myzus persicae spray test (Chinese cabbage leaf discs). Type of assay: in vivo. The settings on record: 100 g/ha; after 6 days. The protocol: (§2) After 6 days, the efficacy in % is determined.
In a further assay the test system is Tetranychus urticae. As to the kind of experiment: Tetranychus urticae spray test, OP-resistant (bean leaf discs). Type of assay: in vivo. The settings on record: 100 g/ha; after 6 days. Here is the method:
as §2

The subject of another assay is Phaedon cochleariae. As to the kind of experiment: Phaedon cochleariae spray test. The settings on record: 100 g/ha; after 7 days.
The subject of another assay is Spodoptera frugiperda. As to the kind of experiment: Spodoptera frugiperda spray test. Type of assay: in vivo. The settings on record: 100 g/ha; after 7 days.
Assay [2] deals with Ctenocephalides felis. As to the kind of experiment: Ctenocephalides felis in vitro contact test with adult cat fleas. The settings on record: application rate 5 μg/cm^2 (=500 g/ha); after 48 h; dead or moribund fleas. Type of assay: in vivo. The protocol:
For the coating of the test tubes, 9 mg of active ingredient are first dissolved in 1 ml of acetone p.a. and then diluted to the desired concentration with acetone p.a. 250 μl of the solution are distributed homogeneously on the inner walls and the base of a 25 ml glass tube by turning and rocking on an orbital shaker (rocking rotation at 30 rpm for 2 h). With 900 ppm of active ingredient solution and internal surface area 44.7 cm^2, given homogeneous distribution, an area-based dose of 5 μg/cm^2 is achieved.
After the solvent has evaporated off, the tubes are populated with 5-10 adult cat fleas (Ctenocephalides felis), sealed with a perforated plastic lid and incubated in a horizontal position at room temperature and ambient humidity. After 48 h, efficacy is determined. To this end, the tubes are stood upright and the fleas are knocked to the base of the tube. Fleas which remain motionless at the base or move in an uncoordinated manner are considered to be dead or moribund.
100% efficacy means that all the fleas were dead or moribund. 0% efficacy means that no fleas were harmed.

16 molecules from US10357036B2, “Compounds for controlling arthropods” (priority 2015, dated 2019) can be followed below.

On to `CC(=O)NCc1cc(-c2cnn(-c3c(Cl)cc(C(F)(C(F)(F)F)C(F)(F)F)cc3S(C)(=O)=O)c2)ccc1F` [Ia-11], for which the efficacy in the assay on Rhipicephalus sanguineus, with Myzus persicae, with Tetranychus urticae and in the assay with Phaedon cochleariae was 100% each time. The “efficacy (laying of fertile eggs)” value in the assay with Boophilus microplus was 100%. For the same molecule, the “efficacy (rate of extermination)” value in the assay on Ctenocephalides felis [1] and in the assay with Musca domestica was 100% throughout.

In the case of `O=C(NCc1cc(-c2cnn(-c3c(Cl)cc(C(F)(C(F)(F)F)C(F)(F)F)cc3C(F)F)c2)ccc1F)C1CC1` [Ia-58], the efficacy was determined as 70% with Myzus persicae, 100% in the assay with Spodoptera frugiperda, 100% in the assay with Tetranychus urticae and 100% in the assay on Phaedon cochleariae.

Take `CCC(=O)NCc1cc(-c2cnn(-c3c(C)cc(C(F)(C(F)(F)F)C(F)(F)F)cc3Cl)c2)ccc1C` [Ia-76]: the efficacy was found to be 100% in the assay with Ctenocephalides felis [2]; 100% in the assay with Rhipicephalus sanguineus; 90% with Myzus persicae; 100% in the assay on Spodoptera frugiperda; 100% in the assay on Tetranychus urticae; 100% in the assay on Phaedon cochleariae. In addition, in the assay on Boophilus microplus, the “efficacy (laying of fertile eggs)” value is reported as 100%. Further, the “efficacy (rate of extermination)” value in the assay on Ctenocephalides felis [1] and in the assay with Musca domestica was 100% throughout.

As to `CCC(=O)NCc1cc(-c2cnn(-c3c(Cl)cc(C(F)(C(F)(F)F)C(F)(F)F)cc3C(F)(F)F)c2)ccc1C` [Ia-80], the efficacy with Ctenocephalides felis [2] is listed as 100%; in the assay on Rhipicephalus sanguineus, 100%; in the assay on Myzus persicae, 90%; in the assay with Spodoptera frugiperda, 100%; with Tetranychus urticae it was 100%; in the assay on Phaedon cochleariae it was 83%. Besides, the “efficacy (laying of fertile eggs)” value in the assay with Boophilus microplus came to 100%. In addition, the “efficacy (rate of extermination)” value in the assay on Ctenocephalides felis [1] and in the assay on Musca domestica was 100% in each case.

In the case of `CCC(=O)N(C)Cc1cc(-c2cnn(-c3c(Cl)cc(C(F)(C(F)(F)F)C(F)(F)F)cc3Cl)c2)cnc1Cl` [Ia-134], the efficacy in the assay with Ctenocephalides felis [2], in the assay on Myzus persicae, in the assay on Spodoptera frugiperda, in the assay with Tetranychus urticae and in the assay on Phaedon cochleariae was 100% throughout. Also, in the assay with Boophilus microplus, the “efficacy (laying of fertile eggs)” value is recorded as 100%. Moreover, the “efficacy (rate of extermination)” value in the assay on Ctenocephalides felis [1] and in the assay on Musca domestica was 100% throughout.

As to `CCC(=O)N(C)Cc1cc(-c2cnn(-c3c(Cl)cc(C(F)(C(F)(F)F)C(F)(F)F)cc3OC(F)(F)F)c2)cnc1Cl` [Ia-135], the efficacy with Myzus persicae is on record as 90%; with Spodoptera frugiperda it was 100%; in the assay on Tetranychus urticae, 100%; in the assay on Phaedon cochleariae, 100%.

As to `CC(=O)N(C)Cc1cc(-c2cnn(-c3c(Cl)cc(C(F)(C(F)(F)F)C(F)(F)F)cc3OC(F)(F)F)c2)cnc1Cl` [Ia-136], the efficacy in the assay on Ctenocephalides felis [2], in the assay on Myzus persicae, with Spodoptera frugiperda, in the assay with Tetranychus urticae and in the assay on Phaedon cochleariae was 100% each time. Also, the “efficacy (laying of fertile eggs)” value in the assay on Boophilus microplus amounted to 100%. Besides, the “efficacy (rate of extermination)” value in the assay on Ctenocephalides felis [1] and with Musca domestica was 100% throughout.

In the case of `CCC(=O)NCc1cc(-c2cnn(-c3c(Cl)cc(C(F)(C(F)(F)F)C(F)(F)F)cc3C(F)(F)F)c2)cnc1Cl` [Ia-138], the efficacy in the assay with Myzus persicae was determined as 90%; in the assay on Spodoptera frugiperda, 100%; in the assay on Tetranychus urticae, 90%; with Phaedon cochleariae it was 100%.

In the case of `CC(=O)NCc1cc(-c2cnn(-c3c(Cl)cc(C(F)(C(F)(F)F)C(F)(F)F)cc3C(F)(F)F)c2)cnc1Cl` [Ia-139], the efficacy in the assay with Ctenocephalides felis [2] turned out to be 100%; in the assay on Rhipicephalus sanguineus it was 100%; in the assay with Spodoptera frugiperda, 100%; with Tetranychus urticae, 90%; in the assay with Phaedon cochleariae, 100%. In the assay with Boophilus microplus, the “efficacy (laying of fertile eggs)” value is 100%. In addition, the “efficacy (rate of extermination)” value in the assay with Ctenocephalides felis [1] and in the assay on Musca domestica was 100% each time.

For the molecule `CC(=O)NCc1c(F)ccc(-c2cnn(-c3c(Cl)cc(C(F)(C(F)(F)F)C(F)(F)F)cc3C(F)(F)F)c2)c1F` [Ia-147], the efficacy in the assay with Ctenocephalides felis [2] came to 100%; in the assay on Rhipicephalus sanguineus it was 100%; in the assay on Myzus persicae it was 90%; in the assay on Spodoptera frugiperda it was 100%; in the assay with Tetranychus urticae, 100%; in the assay with Phaedon cochleariae it was 100%. Moreover, in the assay on Boophilus microplus, the “efficacy (laying of fertile eggs)” value worked out at 100%. Besides, the “efficacy (rate of extermination)” value in the assay on Ctenocephalides felis [1] and in the assay with Musca domestica was 100% throughout.

Turning to `CC(=O)NCc1c(F)ccc(-c2cnn(-c3c(Cl)cc(C(F)(C(F)(F)F)C(F)(F)F)cc3Cl)c2)c1F` [Ia-149], the efficacy in the assay on Ctenocephalides felis [2] is listed as 100%; with Myzus persicae, 90%; with Spodoptera frugiperda, 100%; in the assay with Tetranychus urticae it was 100%; with Phaedon cochleariae it was 100%. In addition, the “efficacy (laying of fertile eggs)” value in the assay on Boophilus microplus came to 100%. Moreover, the “efficacy (rate of extermination)” value in the assay with Ctenocephalides felis [1] and with Musca domestica was 100% throughout.

Regarding `CCC(=O)NCc1cccc(-c2cnn(-c3c(Cl)cc(C(F)(C(F)(F)F)C(F)(F)F)cc3Cl)c2)c1F` [Ia-152], the “efficacy (laying of fertile eggs)” value in the assay with Boophilus microplus is 100%. The “efficacy (rate of extermination)” value in the assay with Ctenocephalides felis [1] and in the assay with Musca domestica was 100% each time. Besides, the efficacy with Myzus persicae, in the assay with Spodoptera frugiperda and in the assay with Phaedon cochleariae was 100% throughout.

As to `CCC(=O)NCc1cc(-c2cnn(-c3c(Cl)cc(C(F)(C(F)(F)F)C(F)(F)F)cc3C(F)F)c2)cnc1Cl` [Ia-154], the efficacy in the assay with Myzus persicae is on record as 90%; in the assay on Spodoptera frugiperda, 100%; in the assay with Tetranychus urticae, 100%; in the assay with Phaedon cochleariae it was 100%.

In the case of `CC(=O)NCc1cccc(-c2cnn(-c3c(Cl)cc(C(F)(C(F)(F)F)C(F)(F)F)cc3OC(F)F)c2)c1F` [Ia-155], in the assay with Boophilus microplus, the “efficacy (laying of fertile eggs)” value was 100%. Besides, the “efficacy (rate of extermination)” value in the assay with Ctenocephalides felis [1] and in the assay on Musca domestica was 100% each time. For the same molecule, the efficacy with Myzus persicae is 90%; in the assay on Spodoptera frugiperda, 100%; in the assay on Phaedon cochleariae, 100%.

For the molecule `CC(=O)NCc1cc(-c2cnn(-c3c(Cl)cc(C(F)(C(F)(F)F)C(F)(F)F)cc3OC(F)F)c2)cnc1Cl` [Ia-156], the efficacy with Myzus persicae is reported as 90%; in the assay on Spodoptera frugiperda, 100%; with Tetranychus urticae it was 100%; with Phaedon cochleariae, 100%.

For the molecule `CCC(=O)NCc1cccc(-c2cnn(-c3c(Cl)cc(C(F)(C(F)(F)F)C(F)(F)F)cc3OC(F)F)c2)c1F` [Ia-159], the “efficacy (laying of fertile eggs)” value in the assay on Boophilus microplus is 100%. Further, the “efficacy (rate of extermination)” value in the assay on Ctenocephalides felis [1] and in the assay with Musca domestica was 100% throughout. Besides, the efficacy in the assay with Myzus persicae was found to be 90%; with Spodoptera frugiperda, 100%; in the assay on Phaedon cochleariae it was 100%.
